# Reference: patent publication US10435399B2, “HDAC6 inhibitory heterocyclic compound” (TAKEDA PHARMACEUTICAL COMPANY LIMITED, priority 2017, dated 2019)
# Target: T1, HDAC6 enzyme (Homo sapiens, UniProt Q9UBN7)
# T1 construct: transducing full length HDAC6 gene into Sf-9 insect cells; GST; purchased SignalChem; host or cells: Sf-9 insect cells
# T1 sequence (Q9UBN7 1-1215): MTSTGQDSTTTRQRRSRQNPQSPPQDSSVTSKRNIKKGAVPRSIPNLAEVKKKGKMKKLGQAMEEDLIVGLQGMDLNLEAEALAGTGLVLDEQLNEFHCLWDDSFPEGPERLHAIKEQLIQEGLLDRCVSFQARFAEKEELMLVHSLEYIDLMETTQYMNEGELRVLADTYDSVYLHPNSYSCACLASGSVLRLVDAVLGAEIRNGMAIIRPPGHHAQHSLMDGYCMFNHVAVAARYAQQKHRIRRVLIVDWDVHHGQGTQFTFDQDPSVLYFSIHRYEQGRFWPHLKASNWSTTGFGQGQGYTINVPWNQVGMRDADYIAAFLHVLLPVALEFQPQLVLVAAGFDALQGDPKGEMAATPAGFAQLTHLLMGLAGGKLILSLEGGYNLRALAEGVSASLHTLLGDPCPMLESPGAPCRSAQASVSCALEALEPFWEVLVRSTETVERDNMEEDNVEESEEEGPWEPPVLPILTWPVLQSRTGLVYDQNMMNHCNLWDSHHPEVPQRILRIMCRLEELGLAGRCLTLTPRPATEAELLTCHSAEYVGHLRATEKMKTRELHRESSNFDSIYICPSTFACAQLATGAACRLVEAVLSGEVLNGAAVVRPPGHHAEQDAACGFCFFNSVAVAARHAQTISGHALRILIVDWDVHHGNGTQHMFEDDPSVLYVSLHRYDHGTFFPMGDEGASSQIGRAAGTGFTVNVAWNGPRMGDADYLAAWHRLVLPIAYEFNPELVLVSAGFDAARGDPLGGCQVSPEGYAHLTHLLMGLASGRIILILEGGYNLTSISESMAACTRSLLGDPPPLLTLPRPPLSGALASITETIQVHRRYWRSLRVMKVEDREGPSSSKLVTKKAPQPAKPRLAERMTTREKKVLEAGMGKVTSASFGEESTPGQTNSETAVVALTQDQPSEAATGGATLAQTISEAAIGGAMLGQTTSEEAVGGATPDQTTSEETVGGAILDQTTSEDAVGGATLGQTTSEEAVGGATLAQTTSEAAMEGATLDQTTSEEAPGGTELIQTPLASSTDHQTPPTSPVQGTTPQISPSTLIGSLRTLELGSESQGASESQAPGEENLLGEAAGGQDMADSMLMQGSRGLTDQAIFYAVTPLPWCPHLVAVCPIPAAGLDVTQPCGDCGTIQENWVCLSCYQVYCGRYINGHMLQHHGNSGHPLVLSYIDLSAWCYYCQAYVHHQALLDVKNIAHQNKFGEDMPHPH
# Assay: HDAC6 enzyme inhibitory activity (HDAC-Glo I/II Assay kit)
# Format: biochemical
# Conditions: 10 μM; wells without enzyme = 100% inhibition
# Method in brief: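 Luminescent HDAC-Glo I/II readout after 20 min room-temperature reaction with substrate-developer, following 60 min compound–enzyme preincubation. Enzyme: full-length HDAC6 from Sf-9 cells, GST-purified; buffer 24 mM Tris-HCl pH 7.5, 0.01% Tween-20, glutathione, salts. Wells lacking enzyme define 100% inhibition.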
row,Structure (SMILES),HDAC6 inhibitory rate (%) (10 μM)
1,"O=C1c2cc(-c3nnc(C(F)F)o3)ccc2CN1N1CCC(F)(F)CC1c1ccc(F)cn1 (stereo not drawn) [Example 610, 2-(4,4-Difluoro-2-(5-fluoropyridin-2-yl)piperidin-1-yl)-6-(5-(difluoromethyl)-1,3,4-oxadiazol-2-yl)isoindolin-1-one (Optical Isomer)]",99
2,"Cc1ccc(C2CC(F)(F)CCN2N2Cc3ccc(-c4nnc(C(F)F)o4)cc3C2=O)nc1 (stereo not drawn) [Example 615, 6-(5-(difluoromethyl)-1,3,4-oxadiazol-2-yl)-2-(4,4-difluoro-2-(5-methylpyridin-2-yl)piperidin-1-yl)isoindolin-1-one (optical isomer)]",99

# Now from value to compound:
row,HDAC6 inhibitory rate (%) (10 μM),Structure (SMILES)
1,99,"O=C1c2cc(-c3nnc(C(F)F)o3)ccc2CN1N1CCCC1c1ccccn1 (stereo not drawn) [Example 597, 6-(5-(difluoromethyl)-1,3,4-oxadiazol-2-yl)-2-(2-(pyridin-2-yl)pyrrolidin-1-yl)isoindolin-1-one (optical isomer)]"
2,99,"O=C1c2cc(-c3nnc(C(F)F)o3)ccc2CN1N1CCC(F)(F)CC1c1ccc(F)cn1 (stereo not drawn) [Example 612, 2-(4,4-Difluoro-2-(5-fluoropyridin-2-yl)piperidin-1-yl)-6-(5-(difluoromethyl)-1,3,4-oxadiazol-2-yl)isoindolin-1-one (Optical Isomer)]"
3,99,"Cc1ccc(C2CC(F)(F)CCN2N2Cc3ccc(-c4nnc(C(F)F)o4)cc3C2=O)nc1 (stereo not drawn) [Example 614, 6-(5-(difluoromethyl)-1,3,4-oxadiazol-2-yl)-2-(4,4-difluoro-2-(5-methylpyridin-2-yl)piperidin-1-yl)isoindolin-1-one (optical isomer)]"

# Same assay, conditions: 10 μM; wells without enzyme = 100% inhibition; read-out: HDAC6 inhibitory rate (%) (10 μM)
row,Structure (SMILES),inhibition at 10 µM [%]
1,"O=C1c2cc(-c3nnc(C(F)F)o3)cnc2CN1[C@@H]1CCCC(F)(F)[C@H]1NC(=O)C(F)(F)C(F)(F)F [Example 599, N-((1S,6R)-6-(3-(5-(difluoromethyl)-1,3,4-oxadiazol-2-yl)-5-oxo-5,7-dihydro-6H-pyrrolo[3,4-b]pyridin-6-yl)-2,2-difluorocyclohexyl)-2,2,3,3,3-pentafluoropropanamide]",99
2,"CC(C)(C(=O)N[C@H]1[C@H](N2Cc3ncc(-c4nnc(C(F)F)o4)cc3C2=O)CCCC1(F)F)C(F)(F)F [Example 605, N-((1S,6R)-6-(3-(5-(difluoromethyl)-1,3,4-oxadiazol-2-yl)-5-oxo-5,7-dihydro-6H-pyrrolo[3,4-b]pyridin-6-yl)-2,2-difluorocyclohexyl)-3,3,3-trifluoro-2,2-dimethylpropanamide]",99
3,"CC(C)(CF)OC(=O)N[C@H]1[C@H](N2Cc3ncc(-c4nnc(C(F)F)o4)cc3C2=O)CCCC1(F)F [Example 607, 1-fluoro-2-methylpropan-2-yl ((1S,6R)-6-(3-(5-(difluoromethyl)-1,3,4-oxadiazol-2-yl)-5-oxo-5,7-dihydro-6H-pyrrolo[3,4-b]pyridin-6-yl)2,2-difluorocyclohexyl)carbamate]",99
4,"CC(C)(OC(=O)N[C@H]1[C@H](N2Cc3ncc(-c4nnc(C(F)F)o4)cc3C2=O)CCCC1(F)F)C(F)F [Example 608, 1,1-difluoro-2-methylpropan-2-yl ((1S,6R)-6-(3-(5-(difluoromethyl)-1,3,4-oxadiazol-2-yl)-5-oxo-5,7-dihydro-6H-pyrrolo[3,4-b]pyridin-6-yl)-2,2-difluorocyclohexyl)carbamate]",99
5,"O=C(N[C@H]1[C@H](N2Cc3ncc(-c4nnc(C(F)F)o4)cc3C2=O)CCCC1(F)F)C(C(F)(F)F)C(F)(F)F [Example 613, N-((1S,6R)-6-(3-(5-(difluoromethyl)-1,3,4-oxadiazol-2-yl)-5-oxo-5,7-dihydro-6H-pyrrolo[3,4-b]pyridin-6-yl)-2,2-difluorocyclohexyl)-3,3,3-trifluoro-2-(trifluoromethyl)propanamide]",99
6,"O=C(N[C@@H]1[C@H](N2Cc3ccc(-c4nnc(C(F)F)o4)cc3C2=O)CCCC1(F)F)OCc1ccccc1 [Example 619, benzyl ((1R,6R)-6-(6-(5-(difluoromethyl)-1,3,4-oxadiazol-2-yl)-1-oxo-1,3-dihydro-2H-isoindol-2-yl)-2,2-difluorocyclohexyl)carbamate]",100
7,"N[C@@H]1[C@H](N2Cc3ccc(-c4nnc(C(F)F)o4)cc3C2=O)CCCC1(F)F [Example 621, 2-((1R,2R)-2-amino-3,3-difluorocyclohexyl)-6-(5-(difluoromethyl)-1,3,4-oxadiazol-2-yl)isoindolin-1-one]",88
8,"O=C(NCC(F)F)C1CC(F)(F)CCN1N1Cc2ccc(-c3nnc(C(F)F)o3)cc2C1=O (stereo not drawn) [Example 623, N-(2,2-difluoroethyl)-1-(6-(5-(difluoromethyl)-1,3,4-oxadiazol-2-yl)-1-oxo-1,3-dihydro-2H-isoindol-2-yl)-4,4-difluoropiperidine-2-carboxamide]",100

# Now from value to compound:
row,inhibition at 10 µM [%],Structure (SMILES)
1,100,"Cc1ccc(C2CC(F)(F)CCN2N2Cc3ccc(-c4nnc(C(F)F)o4)cc3C2=O)nc1 (stereo not drawn) [Example 600, 6-(5-(difluoromethyl)-1,3,4-oxadiazol-2-yl)-2-(4,4-difluoro-2-(5-methylpyridin-2-yl)piperidin-1-yl)isoindolin-1-one]"
2,99,"O=C1c2cc(-c3nnc(C(F)F)o3)cnc2CN1[C@@H]1CCCC(F)(F)[C@H]1NC(=O)C(F)(F)C(F)F [Example 601, N-((1S,6R)-6-(3-(5-(difluoromethyl)-1,3,4-oxadiazol-2-yl)-5-oxo-5,7-dihydro-6H-pyrrolo[3,4-b]pyridin-6-yl)-2,2-difluorocyclohexyl)-2,2,3,3-tetrafluoropropanamide]"
3,101,"O=C1c2cc(-c3nnc(C(F)F)o3)ccc2CN1N1CCCCC1c1cncc(F)c1 (stereo not drawn) [Example 602, 6-(5-(difluoromethyl)-1,3,4-oxadiazol-2-yl)-2-(2-(5-fluoropyridin-3-yl)piperidin-1-yl)isoindolin-1-one]"
4,100,"O=C1c2cc(-c3nnc(C(F)F)o3)ccc2CN1N1CCCCC1c1cccc(F)c1 (stereo not drawn) [Example 603, 6-(5-(difluoromethyl)-1,3,4-oxadiazol-2-yl)-2-(2-(3-fluorophenyl)piperidin-1-yl)isoindolin-1-one]"
5,98,"O=C(OCc1ccccc1)C1CC(F)(F)CCN1N1Cc2ccc(-c3nnc(C(F)F)o3)cc2C1=O (stereo not drawn) [Example 604, benzyl 1-(6-(5-(difluoromethyl)-1,3,4-oxadiazol-2-yl)-1-oxo-1,3-dihydro-2H-isoindol-2-yl)-4,4-difluoropiperidine-2-carboxylate]"
6,99,O=C1c2cc(-c3nnc(C(F)F)o3)cnc2CN1C1CCCC(F)(F)[C@H]1NC(=O)C1(C(F)(F)F)CC1 (stereo partly drawn) [Example 606]
7,99,"Cn1cc(C2CCCCN2N2Cc3ccc(-c4nnc(C(F)F)o4)cc3C2=O)cn1 (stereo not drawn) [Example 609, 6-(5-(difluoromethyl)-1,3,4-oxadiazol-2-yl)-2-(2-(1-methyl-1H-pyrazol-4-yl)piperidin-1-yl)isoindolin-1-one]"
8,101,"CC(=O)N1CCC(C2CCCCN2N2Cc3ccc(-c4nnc(C(F)F)o4)cc3C2=O)CC1 (stereo not drawn) [Example 611, 2-(1′-acetyl-2,4′-bipiperidin-1-yl)-6-(5-(difluoromethyl)-1,3,4-oxadiazol-2-yl)isoindolin-1-one]"
9,89,"O=C1c2cc(-c3nnc(C(F)F)o3)ccc2CN1c1cccn2ccnc12 [Example 616, 6-(5-(difluoromethyl)-1,3,4-oxadiazol-2-yl)-2-(imidazo[1,2-a]pyridin-8-yl)isoindolin-1-one]"
10,100,"O=C1c2cc(-c3nnc(C(F)F)o3)ccc2CN1N1CCOCC1c1ccc(F)cc1 (stereo not drawn) [Example 617, 6-(5-(difluoromethyl)-1,3,4-oxadiazol-2-yl)-2-(3-(4-fluorophenyl)morpholin-4-yl)isoindolin-1-one]"
11,100,"O=C(NCC(F)(F)C(F)(F)F)C1CC(F)(F)CCN1N1Cc2ccc(-c3nnc(C(F)F)o3)cc2C1=O (stereo not drawn) [Example 622, 1-(6-(5-(difluoromethyl)-1,3,4-oxadiazol-2-yl)-1-oxo-1,3-dihydro-2H-isoindol-2-yl)-4,4-difluoro-N-(2,2,3,3,3-pentafluoropropyl)piperidine-2-carboxamide]"
